The test system of one series is κ-isozyme of DGK. To be noted: at 5 μM; cited from earlier work.
The test system of the next series is δ-isozyme of DGK. As to conditions: at 5 μM; cited from earlier work.
Another series relates to ι-isozyme of DGK. As to conditions: at 5 μM; cited from earlier work.
The test system of series [1] is diacylglycerol kinase α (DGKα). As to conditions: at 5 μM; cited from earlier work.
Series [2] is classed as physicochemical. As to conditions: for discoloration of solutions prepared for NMR: DMSO-d6 or CDCl3, ambient temperature; for discoloration when dissolved in DMSO: 5 days at ambient temperature.
Another series deals with ABCC2. As to conditions: read-out: IC50 in at least one assay; cited from earlier work.
A further series has as its target MSN/CD44 (Homo sapiens, UniProt P26038). The class given is binding. As to conditions: for activity in MSN/CD44 TR-FRET assay: in words. For orientation: In TR-FRET formats the signal depends on donor and acceptor labels being close together.
A further series deals with H. pylori. As to conditions: cited from earlier work.
For another series, the system named is IspF domain. To be noted: cited from earlier work.
The next series relates to Shank3 PDZ domain. To be noted: read-out: Shank3 IC50; cited from earlier work.
In a further series the target is NS5. To be noted: read-out: NS5 Ki; cited from earlier work.
In another series the test system is cell cycle progression. As to conditions: at ≥30 μM; cited from earlier work.
A further series has as its system EZH2-EED interaction. As to conditions: cited from earlier work.
The test system of the next series is WT PRC2-EZH2. To be noted: cited from earlier work.

Structures are written as SMILES.

Chain of MSN/CD44 (P26038 2-295): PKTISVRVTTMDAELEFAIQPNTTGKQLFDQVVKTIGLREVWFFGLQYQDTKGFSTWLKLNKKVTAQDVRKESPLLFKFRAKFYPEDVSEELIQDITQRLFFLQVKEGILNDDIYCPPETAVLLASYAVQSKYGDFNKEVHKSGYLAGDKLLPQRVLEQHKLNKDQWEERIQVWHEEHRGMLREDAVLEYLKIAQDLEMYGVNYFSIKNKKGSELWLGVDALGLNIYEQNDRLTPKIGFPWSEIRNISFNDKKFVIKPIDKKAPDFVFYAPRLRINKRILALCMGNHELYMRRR

Regarding `CC(=O)c1ccc2c(c1)C1C=CCC1C(C(=O)O)N2` (centres unmarked) [CU-4], the “inhibition of κ-isozyme of DGK” value in the series on κ-isozyme of DGK is “strongly inhibit”. Besides, in the series on δ-isozyme of DGK, the “inhibition of δ-isozyme of DGK” value was “strongly inhibit”. Also, the “inhibition of ι-isozyme of DGK” value with ι-isozyme of DGK was “strongly inhibit”. In [1], the “inhibition of α-isozyme of DGK” value was “strongly inhibit”.

For the molecule `CCOC(=O)c1ccc2c(c1)C1C=CCC1C(C(=O)OCC)N2` (centres unmarked) [Compound 1, Diethyl 3a,4,5,9b-tetrahydro-3H-cyclopenta[c]quinoline-4,8-dicarboxylate], the “1H NMR analysis of samples kept in CDCl3” value in series [2] (CDCl3, 120 h in light) is given as “no significant changes in the spectra”. In addition, the “stability in solution kept in the dark” value in [2] (DMSO-d6, dark, 72 h, 5 mg) is listed as “remained a clear solution”. Further, the “stability in solution kept in the light” value in series [2] (DMSO-d6, light, 72 h, 25 mg and 5 mg) was “decomposed and changed color (purple)”. Besides, in series [2] (72 h), the “discoloration of solutions prepared for NMR” value was “Discoloration”.

On to `O=C(O)C1Nc2c(F)cccc2C2C=CCC12` (centres unmarked) [Compound 1e], for which, in the series on ABCC2, the 50% inhibitory concentration (IC50) (usually the midpoint of a concentration-inhibition curve) was under 30 µM.

For `CCOC(=O)c1ccc2c(c1)C1CCCC1C(C(=O)OCC)N2` (centres unmarked) [Compound 2], the “discoloration when dissolved in DMSO” value in series [2] is recorded as “No discoloration”. Also, the “activity in MSN/CD44 TR-FRET assay” value at MSN/CD44 was “inactive”.

As to `O=C(O)c1ccc2c(c1)C1CCCC1C(C(=O)O)N2` (centres unmarked) [Compound 3], the “discoloration when dissolved in DMSO” value in series [2] is listed as “No discoloration”. Further, at MSN/CD44, the “activity in MSN/CD44 TR-FRET assay” value was “inactive”.

`O=C(O)C1Nc2ccc(Oc3ccccc3)cc2C2C=CCC12` (centres unmarked) [Compound 27]: the “inhibition of H. pylori growth” value in the series on H. pylori is on record as “only a weak inhibitor”. For the same molecule, in the series with IspF domain, the “inhibitory effect in IspF domain assay” value was “did not show an inhibitory effect”.

For the molecule `O=C(O)[C@@H]1Nc2c(O)cc(Cl)c([N+](=O)[O-])c2[C@@H]2C=CC[C@H]12` [Compound 34], in the series on Shank3 PDZ domain, the IC50 was under 250 µM.

For `O=C(O)C1Nc2c(I)cccc2C2C=CCC12` (centres unmarked) [Compound 5660163], the Ki (commonly the equilibrium dissociation constant of an inhibitor or competing ligand from its target) at NS5 was under 10 µM.

Regarding `O=C(O)c1ccc2c(c1)C1C=CCC1C(C(=O)O)N2` (centres unmarked) [Compound 5661118], the “discoloration of solution prepared for biological evaluation” value in series [2] (DMSO (10 mM)) was “same discoloration”. In addition, the “discoloration of solutions prepared for NMR” value in series [2] (72 h) is listed as “Discoloration”. Besides, the cell cycle arrest result in the series on cell cycle progression is given as “failed to elicit cell cycle arrest”. In addition, the Hill coefficient (in general, the slope factor of the fitted curve) on MSN/CD44 (MSN/CD44 TR-FRET dose–response curve) was 3.4.

Regarding `O=C(O)c1cc(-c2ccccn2)c2c(c1)C1C=CCC1C(C(=O)O)N2` (centres unmarked) [WNN2074-A009], in the series with EZH2-EED interaction, the “inhibition of the EZH2-EED interaction” value is “weak”. Besides, in the series on WT PRC2-EZH2, the “inhibition of WT PRC2-EZH2” value is on record as “inhibited”.

Values taken from article PMC10641811 (Journal of Medicinal Chemistry, 2023).
